The values that follow come from patent US20250304576A1 (Cancer Research Technology Limited, priority 2022, published 2025).

The structures appear in SMILES notation.

One test addresses T1, Recombinant IKKα (Homo sapiens, UniProt O15111).
T1 construct: purchased Millipore, Dundee, UK
T1 sequence (O15111 1-745): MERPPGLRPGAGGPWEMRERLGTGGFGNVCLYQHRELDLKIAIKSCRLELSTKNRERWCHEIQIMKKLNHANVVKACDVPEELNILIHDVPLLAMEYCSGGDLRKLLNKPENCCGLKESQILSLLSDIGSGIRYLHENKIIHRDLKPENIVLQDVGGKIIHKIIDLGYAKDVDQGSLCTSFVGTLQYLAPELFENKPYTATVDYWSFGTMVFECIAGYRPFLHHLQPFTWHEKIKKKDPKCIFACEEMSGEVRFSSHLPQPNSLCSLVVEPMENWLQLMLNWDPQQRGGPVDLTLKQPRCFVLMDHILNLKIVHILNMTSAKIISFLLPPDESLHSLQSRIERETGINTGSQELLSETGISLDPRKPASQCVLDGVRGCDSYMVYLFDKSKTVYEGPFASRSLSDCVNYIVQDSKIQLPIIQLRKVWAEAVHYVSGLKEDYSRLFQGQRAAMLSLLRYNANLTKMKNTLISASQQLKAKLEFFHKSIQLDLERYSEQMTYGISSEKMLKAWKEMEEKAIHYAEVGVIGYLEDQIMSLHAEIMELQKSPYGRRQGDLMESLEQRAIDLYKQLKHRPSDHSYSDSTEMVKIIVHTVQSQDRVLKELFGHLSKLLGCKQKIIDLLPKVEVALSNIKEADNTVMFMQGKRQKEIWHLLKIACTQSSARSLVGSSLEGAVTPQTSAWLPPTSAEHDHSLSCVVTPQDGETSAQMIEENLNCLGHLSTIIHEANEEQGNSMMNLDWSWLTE
Nature of the test: DELFIA IKKα kinase assay (apparent Ki, Cheng-Prusoff). As to conditions: DELFIA assay (first line of an example). It counts as biochemical. The method, boiled down:
(§1)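 Recombinant IKKα or IKKβ (37 nM) with 0.375 μM biotinylated IκB-α (Ser32) peptide and 40 μM ATP in 40 mM Tris-HCl pH 7.5, 20 mM MgCl2, 60 min at 30° C. Phospho-substrate captured on streptavidin and detected by anti-phospho-IκB-α plus europium anti-mouse IgG time-resolved fluorescence; apparent Ki via Cheng-Prusoff.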

The target in the next test is T2, Recombinant IKKβ (Homo sapiens, UniProt O14920).
T2 construct: purchased Millipore, Dundee, UK
T2 sequence (O14920 1-756): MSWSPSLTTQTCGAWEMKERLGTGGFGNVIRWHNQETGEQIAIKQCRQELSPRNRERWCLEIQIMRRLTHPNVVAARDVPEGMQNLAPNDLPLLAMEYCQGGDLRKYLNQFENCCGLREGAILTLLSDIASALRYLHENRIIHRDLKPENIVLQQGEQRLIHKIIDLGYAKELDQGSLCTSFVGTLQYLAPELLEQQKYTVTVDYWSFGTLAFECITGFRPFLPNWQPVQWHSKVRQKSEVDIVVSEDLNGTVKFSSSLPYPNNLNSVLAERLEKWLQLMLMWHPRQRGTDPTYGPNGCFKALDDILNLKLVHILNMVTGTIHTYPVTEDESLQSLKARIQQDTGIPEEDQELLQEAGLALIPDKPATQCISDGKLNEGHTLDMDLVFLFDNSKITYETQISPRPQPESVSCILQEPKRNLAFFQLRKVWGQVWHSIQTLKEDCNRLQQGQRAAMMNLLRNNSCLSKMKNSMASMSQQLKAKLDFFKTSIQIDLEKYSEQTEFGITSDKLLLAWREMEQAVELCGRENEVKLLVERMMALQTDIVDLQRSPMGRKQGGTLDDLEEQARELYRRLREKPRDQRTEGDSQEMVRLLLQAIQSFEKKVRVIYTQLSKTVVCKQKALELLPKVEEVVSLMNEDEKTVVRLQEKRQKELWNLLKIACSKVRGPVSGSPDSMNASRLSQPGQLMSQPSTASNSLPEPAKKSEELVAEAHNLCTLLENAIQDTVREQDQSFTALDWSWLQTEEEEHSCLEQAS
Nature of the test: DELFIA IKKβ kinase assay (apparent Ki, Cheng-Prusoff). It counts as biochemical. As to conditions: DELFIA assay (first line of an example). The method, boiled down: as §1

As for `CC(C)CCNCc1cc2c(-c3ccc4[nH]nc(N)c4c3)ccnc2[nH]1` [Example 249, 5-(2-((Isopentylamino)methyl)-1H-pyrrolo[2,3-b]pyridine-4-yl)-1H-indazol-3-amine], the Ki was 56 nM at Recombinant IKKα and 1470 nM on Recombinant IKKβ.
As to `Nc1n[nH]c2ccc(-c3ccnc4[nH]c(CNc5ccccc5)cc34)cc12` [Example 252, 5-(2-((Phenylamino)methyl)-1H-pyrrolo[2,3-b]340yridine-4-yl)-1H-indazol-3-amine], the Ki at Recombinant IKKα stood at 6 nM; at Recombinant IKKβ, 59 nM.
Taken in the same sequence, the figures for `Nc1n[nH]c2ccc(-c3ccnc4[nH]c(CNc5ccccc5COc5ccccc5)cc34)cc12` [Example 253, 5-(2-(((2-(Benzyloxy)phenyl)amino)methyl)-1H-pyrrolo[2,3-b]342yridine-4-yl)-1H-indazol-3-amine] were 5 nM and 330 nM.
In the case of `COCCNCc1cc2c(-c3ccc4[nH]nc(N)c4c3)ccnc2[nH]1` [Example 254, 5-(2-(((2-Methoxyethyl)amino)methyl)-1H-pyrrolo[2,3-b]343yridine-4-yl)-1H-indazol-3-amine], the Ki was 18 nM at Recombinant IKKα and 389 nM at Recombinant IKKβ.
For `CN(C)CCNCc1cc2c(-c3ccc4[nH]nc(N)c4c3)ccnc2[nH]1` [Example 255, N^1-((4-(3-Amino-1H-indazol-5-yl)-1H-pyrrolo[2,3-b]pyridin-2-yl)methyl)-N2,N2-dimethylethane-1,2-diamine], in that order: 30 nM and 1630 nM.
For `COCCCNCc1cc2c(-c3ccc4[nH]nc(N)c4c3)ccnc2[nH]1` [Example 256, 5-(2-(((3-methoxypropyl)amino)methyl)-1H-pyrrolo[2,3-b]pyridine-4-yl)-1H-indazol-3-amine], in that order: 46 nM and 2560 nM.
`CC(C)OCCCNCc1cc2c(-c3ccc4[nH]nc(N)c4c3)ccnc2[nH]1` [Example 257, 5-(2-(((3-Isopropoxypropyl)amino)methyl)-1H-pyrrolo[2,3-b]346yridine-4-yl)-1H-indazol-3-amine]: the Ki was determined as 40 nM on Recombinant IKKα and 2220 nM at Recombinant IKKβ.
For `CC(C)(C)N1CCN(Cc2cc3c(-c4ccc5[nH]nc(N)c5c4)ccnc3[nH]2)CC1` [Example 264, 5-(2-((4-(tert-Butyl)piperazin-1-yl)methyl)-1H-pyrrolo[2,3-b]pyridin-4-yl)-1H-indazol-3-amine], in that order: 5 nM and 285 nM.
In the case of `Nc1n[nH]c2ccc(-c3ccnc4[nH]c(CCCNC5CCCCC5)cc34)cc12` [Example 270, 5-(2-(3-(Cyclohexylamino)propyl)-1H-pyrrolo[2,3-b]pyridin-4-yl)-1H-indazol-3-amine], the Ki at Recombinant IKKα stood at 4 nM; at Recombinant IKKβ, 65 nM.
Regarding `Nc1n[nH]c2ccc(-c3ccnc4[nH]c(CC5CCN(Cc6ccccc6)CC5)cc34)cc12` [Example 273, 5-(2-((1-benzylpiperidin-4-yl)methyl)-1H-pyrrolo[2,3-b]pyridin-4-yl)-1H-indazol-3-amine], the results for the Ki on Recombinant IKKα and on Recombinant IKKβ were 5 nM and 200 nM, respectively.
Taken in the same sequence, the figures for `Nc1n[nH]c2c(Cl)cc(-c3ccnc4[nH]c(C(=O)NCCN5CCCCC5)cc34)cc12` [Example 274, 4-(3-Amino-7-chloro-1H-indazol-5-yl)-N-(2-(piperidin-1-yl)ethyl)-1H-pyrrolo[2,3-b]pyridine-2-carboxamide] were 8 nM and 126 nM.
Turning to `Nc1n[nH]c2c(Cl)cc(-c3ccnc4[nH]c(CC5CCCCC5)cc34)cc12` [Example 275, 7-Chloro-5-(2-(cyclohexylmethyl)-1H-pyrrolo[2,3-b]pyridin-4-yl)-1H-indazol-3-amine], the Ki came to 37 nM on Recombinant IKKα and 376 nM at Recombinant IKKβ.
For `Nc1n[nH]c2c(Cl)cc(-c3ccnc4[nH]c(CN5CCOCC5)cc34)cc12` [Example 276, 7-Chloro-5-(2-(morpholinomethyl)-1H-pyrrolo[2,3-b]pyridin-4-yl)-1H-indazol-3-amine], in that order: 4 nM and 70 nM.
For the compound `Nc1n[nH]c2c(Cl)cc(-c3ccnc4[nH]c(CCN5CCOCC5)cc34)cc12` [Example 277, 7-Chloro-5-(2-(2-morpholinoethyl)-1H-pyrrolo[2,3-b]pyridin-4-yl)-1H-indazol-3-amine], the Ki was 1 nM on Recombinant IKKα and 51 nM on Recombinant IKKβ.
Taken in the same sequence, the figures for `CC(C)(C)C#Cc1cc(-c2ccnc3[nH]c(CC4CCCCC4)cc23)cc2c(N)n[nH]c12` [Example 278, 5-(2-(Cyclohexylmethyl)-1H-pyrrolo[2,3-b]pyridin-4-yl)-7-(3,3-dimethylbut-1-yn-1-yl)-1H-indazol-3-amine] were 380 nM and over 10000 nM.
Taken in the same sequence, the figures for `CC(C)(C)C#Cc1cc(-c2ccnc3[nH]c(CCN4CCOCC4)cc23)cc2c(N)n[nH]c12` [Example 280, 7-(3,3-Dimethylbut-1-yn-1-yl)-5-(2-(2-morpholinoethyl)-1H-pyrrolo[2,3-b]pyridin-4-yl)-1H-indazol-3-amine] were 30 nM and 360 nM.
For the compound `Nc1n[nH]c2c(C#Cc3ccccc3)cc(-c3ccnc4[nH]c(CCN5CCOCC5)cc34)cc12` [Example 281, 5-(2-(2-Morpholinoethyl)-1H-pyrrolo[2,3-b]pyridin-4-yl)-7-(phenylethynyl)-1H-indazol-3-amine], the Ki at Recombinant IKKα turned out to be 47 nM; on Recombinant IKKβ, 331 nM.
Regarding `CC(C)(C)C#Cc1cc(-c2ccnc(Nc3ncco3)c2)cc2c(N)n[nH]c12` [Example 282, N-(4-(3-Amino-7-(3,3-dimethylbut-1-yn-1-yl)-1H-indazol-5-yl)pyridin-2-yl)oxazol-2-amine], the Ki was found to be 19 nM on Recombinant IKKα and 594 nM at Recombinant IKKβ.
For `CC(C)(C)C#Cc1cc(-c2ccnc(NCCC(F)(F)F)c2)cc2c(N)n[nH]c12` [Example 283, 7-(3,3-Dimethylbut-1-yn-1-yl)-5-(2-((3,3,3-trifluoropropyl)amino)pyridin-4-yl)-1H-indazol-3-amine], in that order: 215 nM and over 10000 nM.
In the case of `Nc1n[nH]c2c(C#CC3CC3)cc(-c3ccnc(NC4COC4)c3)cc12` [Example 284, 7-(Cyclopropylethynyl)-5-(2-(oxetan-3-ylamino)pyridin-4-yl)-1H-indazol-3-amine], the Ki was 12 nM at Recombinant IKKα and 386 nM at Recombinant IKKβ.
For `COC(=O)Nc1cc(-c2cc(C#CC3CCOCC3)c3[nH]nc(N)c3c2)ccn1` [Example 285], in that order: 37 nM and 274 nM.
Taken in the same sequence, the figures for `CC(C)(O)C#Cc1cc(-c2ccnc(NC3COC3)c2)cc2c(N)n[nH]c12` [Example 287, 4-(3-Amino-5-(2-(oxetan-3-ylamino)pyridin-4-yl)-1H-indazol-7-yl)-2-methylbut-3-yn-2-ol] were 93 nM and 2050 nM.
Taken in the same sequence, the figures for `Nc1n[nH]c2c(C#CC3CCOCC3)cc(-c3ccnc(NC4COC4)c3)cc12` [Example 288, 5-(2-(Oxetan-3-ylamino)pyridin-4-yl)-7-((tetrahydro-2H-pyran-4-yl)ethynyl)-1H-indazol-3-amine] were 24 nM and 500 nM.
As for `Nc1n[nH]c2c(C#CC3CC3)cc(-c3ccnc(NC(=O)C4CC4)c3)cc12` [Example 289, N-(4-(3-Amino-7-(cyclopropylethynyl)-1H-indazol-5-yl)pyridin-2-yl)cyclopropanecarboxamide], the Ki at Recombinant IKKα amounted to 42 nM; on Recombinant IKKβ, 570 nM.
